Experimental findings from ChEMBL document CHEMBL1201862, “PubChem BioAssay data set” (2004) are described below.

Test systems include OVCAR-5; MDA-MB-435; EKVX; HCC 2998; NCI/ADR-RES; DU-145; SK-OV-3; M14; HCT-15; MCF7; SF-268; SN12C; OVCAR-3; UO-31; T47D; RXF 393; 786-0; MOLT-4; A549.
Common to all, as to assay: growth of human tumour cells (NCI), 48 h

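96-well plates; 48 h exposure; 5 concentrations. Endpoints by linear interpolation between flanking doses. Not reached: highest tested concentration assigned. GI50 = concentration required for 50% inhibition of growth.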 Calls of active or inactive are those of the source. No stated cut-off is given here; in the data, active = GI50 up to about 1.1 µM and inactive = higher. Where only a bound is given, the exact number is not on record here.

On to `CCCCC(=C=C(C)CO)C1CCCN1C(=O)OC(C)(C)C` (stereo unspecified), for which the GI50 is 21 µM (inactive) in the assay on OVCAR-5; 18.8 µM (inactive) in the assay on MDA-MB-435; 19.7 µM (inactive) in the assay on EKVX; 8.02 µM (inactive) in the assay on HCC 2998; 16.8 µM (inactive) with NCI/ADR-RES; 18.1 µM (inactive) in the assay on DU-145. Besides, the GI50 with SK-OV-3 was 24.5 µM (inactive); in the assay on M14 it was 18.5 µM (inactive); in the assay on HCT-15 it was 17.9 µM; with MCF7, 20.4 µM (inactive); with SF-268, 17.5 µM (inactive); in the assay with SN12C it was 17.3 µM (inactive). The GI50 was 17.5 µM (inactive) in the assay with OVCAR-3; 22.9 µM (inactive) with UO-31; 22.5 µM (inactive) in the assay with T47D; 15.2 µM (inactive) in the assay with RXF 393; 16.4 µM (inactive) with 786-0; 12.3 µM (inactive) with MOLT-4. Besides, in the assay with A549, the GI50 is 19 µM (inactive).
As for `N=C(N)NC(=N)Nc1ccccc1.Sc1nc2ccccc2s1`, the GI50 in the assay on OVCAR-5, in the assay on MDA-MB-435, in the assay on EKVX, in the assay with HCC 2998, in the assay with NCI/ADR-RES and in the assay on DU-145 was > 100 µM (inactive) in each case. The GI50 is > 100 µM (inactive) with SK-OV-3; > 100 µM (inactive) with M14; more than 100 µM with HCT-15; > 100 µM (inactive) with MCF7; > 100 µM (inactive) in the assay with SF-268; > 100 µM (inactive) with SN12C. Further, the GI50 in the assay with OVCAR-3 was 0.532 µM (active); in the assay with UO-31, > 100 µM (inactive); with T47D, 24.2 µM (inactive); in the assay on RXF 393 it was > 100 µM (inactive); in the assay with 786-0, > 100 µM (inactive); in the assay on A549 it was > 100 µM (inactive).
Consider `O=C1C(c2c(O)[nH]c3ccccc23)=Nc2ccc(Br)cc21`, for which the GI50 was 49.3 µM (inactive) in the assay on OVCAR-5; 61.8 µM (inactive) in the assay with MDA-MB-435; 15.1 µM (inactive) in the assay on EKVX; 25.6 µM (inactive) in the assay on HCC 2998; 37.4 µM (inactive) in the assay on NCI/ADR-RES; 8.11 µM (inactive) in the assay with DU-145. Besides, the GI50 was 18.4 µM (inactive) in the assay with SK-OV-3; 93.5 µM (inactive) in the assay on M14; 76.2 µM with HCT-15; 1.24 µM (inactive) in the assay with MCF7; 25.4 µM (inactive) in the assay on SF-268; 77.1 µM (inactive) in the assay on SN12C. For the same compound, the GI50 with OVCAR-3 was 99.5 µM (inactive); in the assay with UO-31, 24.6 µM (inactive); with T47D, 21.8 µM (inactive); in the assay with RXF 393 it was 12.9 µM (inactive); in the assay on 786-0 it was 9.62 µM (inactive); in the assay with MOLT-4, 18.9 µM (inactive). The GI50 in the assay with A549 is 27.2 µM (inactive).
On to `O=C1Nc2ccc(S(=O)(=O)NCCO)cc2/C1=C1/Nc2ccccc2C1=O`, for which the GI50 is 46.5 µM (inactive) in the assay with OVCAR-5; > 100 µM (inactive) in the assay on MDA-MB-435; 7.69 µM (inactive) with EKVX; 53 µM (inactive) in the assay with HCC 2998; > 100 µM (inactive) in the assay on NCI/ADR-RES; 8 µM (inactive) in the assay on DU-145. For the same compound, the GI50 was 5.42 µM (inactive) in the assay with SK-OV-3; > 100 µM (inactive) in the assay with M14; 13.3 µM with HCT-15; 0.475 µM (active) in the assay on MCF7; 9.59 µM (inactive) with SF-268; 67.5 µM (inactive) in the assay with SN12C. Besides, the GI50 in the assay on OVCAR-3 is 4.06 µM (inactive); in the assay on UO-31, 52.5 µM (inactive); in the assay with T47D, 4.56 µM (inactive); in the assay on RXF 393, 4.36 µM (inactive); with 786-0, 9.31 µM (inactive); with MOLT-4 it was 7.06 µM (inactive). Also, the GI50 in the assay with A549 was > 100 µM (inactive).
In the case of `O=C1Nc2ccc([N+](=O)[O-])cc2/C1=N/NC(=S)Nc1ccc([N+](=O)[O-])cc1`, the GI50 in the assay with OVCAR-5 was 28.7 µM (inactive); in the assay on MDA-MB-435, 18.4 µM (inactive); in the assay on EKVX it was 26.2 µM (inactive); in the assay with HCC 2998, 20.9 µM (inactive); in the assay with NCI/ADR-RES it was 20.5 µM (inactive); with DU-145, 21.5 µM (inactive). The GI50 was 22.4 µM (inactive) in the assay with SK-OV-3; 19.6 µM (inactive) with M14; 19 µM in the assay with HCT-15; 25.4 µM (inactive) with MCF7; 32.6 µM (inactive) with SF-268; 32.3 µM (inactive) in the assay with SN12C. In addition, the GI50 with OVCAR-3 is 22.9 µM (inactive); with UO-31 it was 18 µM (inactive); with T47D, 19.1 µM (inactive); with RXF 393 it was 17.5 µM (inactive); in the assay on 786-0, 16.9 µM (inactive); in the assay with MOLT-4, 35.9 µM (inactive). In addition, the GI50 in the assay with A549 was 21.1 µM (inactive).
Consider `O=C1Cc2cc3ccccc3nc2-c2ccccc2N1`, for which the GI50 with OVCAR-5 was > 100 µM (inactive); in the assay with MDA-MB-435, > 100 µM (inactive); in the assay with EKVX, 67 µM (inactive); with HCC 2998, 31.4 µM (inactive); in the assay on NCI/ADR-RES it was 31.6 µM (inactive); in the assay on DU-145 it was 79.6 µM (inactive). In addition, the GI50 with SK-OV-3 was 38 µM (inactive); in the assay on M14, > 100 µM (inactive); in the assay on HCT-15 it was 96.6 µM; in the assay on MCF7, 49 µM (inactive); in the assay on SF-268, 81.5 µM (inactive); in the assay with SN12C it was > 100 µM (inactive). Moreover, the GI50 in the assay on OVCAR-3 was 73.1 µM (inactive); in the assay with UO-31, 35.4 µM (inactive); with T47D it was 38.5 µM (inactive); with RXF 393, 70.5 µM (inactive); with 786-0, 35.1 µM (inactive); with MOLT-4, > 100 µM (inactive). Besides, in the assay with A549, the GI50 is 63.7 µM (inactive).
Take `COc1cc(C2c3cc(O)c(OC)cc3C3OCC2C3CO)ccc1O` (stereo unspecified): the GI50 in the assay with OVCAR-5, in the assay with MDA-MB-435, with EKVX, with HCC 2998, in the assay on NCI/ADR-RES and with DU-145 was > 100 µM (inactive) in each case. In addition, the GI50 in the assay with SK-OV-3 is > 100 µM (inactive); with M14, > 100 µM (inactive); in the assay on HCT-15, more than 100 µM; in the assay with MCF7, > 100 µM (inactive); with SF-268 it was > 100 µM (inactive); in the assay on OVCAR-3 it was > 100 µM (inactive). In addition, the GI50 with UO-31, in the assay with T47D, with RXF 393, in the assay with 786-0, in the assay on MOLT-4 and in the assay on A549 was > 100 µM (inactive) throughout.
With `CC1(C)CCC(C)(C)c2cc(NC(=O)c3ccc(C(=O)O)cc3)ccc21` [TAMIBAROTENE], the GI50 in the assay on OVCAR-5 was > 51.6 µM (inactive); with MDA-MB-435, 25.9 µM (inactive); with EKVX it was 37.9 µM (inactive); in the assay with HCC 2998 it was 27.2 µM (inactive); in the assay on NCI/ADR-RES it was 31.9 µM (inactive); with DU-145, 23.8 µM (inactive). The GI50 in the assay with SK-OV-3 is 28 µM (inactive); with M14, 26.5 µM (inactive); in the assay with HCT-15 it was 26.9 µM; with MCF7 it was 28.9 µM (inactive); in the assay on SF-268 it was 34.8 µM (inactive); in the assay with SN12C, 25.5 µM (inactive). The GI50 was 22.4 µM (inactive) with OVCAR-3; 17.2 µM (inactive) in the assay with UO-31; 33.7 µM (inactive) with T47D; 26.9 µM (inactive) in the assay with RXF 393; 31.3 µM (inactive) in the assay on 786-0; 30.7 µM (inactive) in the assay with MOLT-4. Further, the GI50 in the assay on A549 is 27 µM (inactive).
For `N#CC1=C(N)N(/N=C/c2ccccc2)C(c2ccccc2)C1(C#N)C#N` (stereo unspecified), the GI50 is 18.7 µM (inactive) in the assay with OVCAR-5; 18.2 µM (inactive) in the assay with MDA-MB-435; 20.2 µM (inactive) in the assay on EKVX; 19.6 µM (inactive) in the assay on HCC 2998; 21.6 µM (inactive) in the assay with NCI/ADR-RES; 16.5 µM (inactive) in the assay with DU-145. In addition, the GI50 in the assay with SK-OV-3 was 12.6 µM (inactive); in the assay with M14, 12.6 µM (inactive); with HCT-15, 6.75 µM; in the assay on MCF7 it was 8.17 µM (inactive); with SF-268, 20.7 µM (inactive); in the assay on SN12C, 14.6 µM (inactive). Moreover, the GI50 with OVCAR-3 was 4.89 µM (inactive); in the assay on UO-31, 15.7 µM (inactive); with T47D it was 6.87 µM (inactive); in the assay on RXF 393, 3.39 µM (inactive); in the assay with 786-0 it was 4.7 µM (inactive); in the assay with MOLT-4, 2.23 µM (inactive). The GI50 in the assay with A549 was 18.7 µM (inactive).
As for `Cc1c(O)c(OC2OC(CO)C(O)C(O)C2O)cc2c1CC[C@@H]1C2(C)C(=O)C[C@]2(C)[C@@H]([C@@](C)(O)C3CCC(C)(C)O3)[C@H](O)C[C@@]12C` (stereo partly specified), the GI50 in the assay with OVCAR-5, in the assay on MDA-MB-435, in the assay with EKVX, in the assay on HCC 2998, in the assay with NCI/ADR-RES and in the assay with DU-145 was > 100 µM (inactive) throughout. For the same compound, the GI50 in the assay with SK-OV-3 is > 100 µM (inactive); in the assay on M14 it was > 100 µM (inactive); with HCT-15, more than 100 µM; in the assay with MCF7, > 100 µM (inactive); in the assay on SF-268, > 100 µM (inactive); in the assay with SN12C, > 100 µM (inactive). Moreover, the GI50 with OVCAR-3, with UO-31, in the assay with T47D, in the assay on RXF 393, with 786-0 and in the assay with MOLT-4 was > 100 µM (inactive) in each case. Moreover, the GI50 with A549 was > 100 µM (inactive).
As to `O=C(O)CCSC1=NCCN1`, the GI50 in the assay with OVCAR-5, in the assay with MDA-MB-435, in the assay with EKVX, with HCC 2998, in the assay with NCI/ADR-RES and with DU-145 was > 100 µM (inactive) throughout. For the same compound, the GI50 in the assay on SK-OV-3 is > 100 µM (inactive); with M14 it was > 100 µM (inactive); in the assay on HCT-15, more than 100 µM; in the assay on MCF7, > 100 µM (inactive); in the assay on SF-268 it was > 100 µM (inactive); in the assay on SN12C, > 100 µM (inactive). The GI50 in the assay with OVCAR-3, in the assay on UO-31, with T47D, in the assay with RXF 393, with 786-0 and with A549 was > 100 µM (inactive) in each case.
